Source: ChEMBL document CHEMBL3244295, “A ureido group containing analogue of oxytocin comprising eight amino acid residues” (J Med Chem, 1978)
Residues, ends and D or L forms follow the SMILES beside them.

Experiments:
Oxytocin-like receptor = target: T1, Oxytocin-like receptor (Gallus gallus, UniProt Q5D7U5); test: Antagonist activity at oxytocin receptor in conscious chicken assessed as inhibition of oxytocin-induced vaspdepressor response; details: read-out: pA2 (converted)
T1 sequence (Q5D7U5 whole entry): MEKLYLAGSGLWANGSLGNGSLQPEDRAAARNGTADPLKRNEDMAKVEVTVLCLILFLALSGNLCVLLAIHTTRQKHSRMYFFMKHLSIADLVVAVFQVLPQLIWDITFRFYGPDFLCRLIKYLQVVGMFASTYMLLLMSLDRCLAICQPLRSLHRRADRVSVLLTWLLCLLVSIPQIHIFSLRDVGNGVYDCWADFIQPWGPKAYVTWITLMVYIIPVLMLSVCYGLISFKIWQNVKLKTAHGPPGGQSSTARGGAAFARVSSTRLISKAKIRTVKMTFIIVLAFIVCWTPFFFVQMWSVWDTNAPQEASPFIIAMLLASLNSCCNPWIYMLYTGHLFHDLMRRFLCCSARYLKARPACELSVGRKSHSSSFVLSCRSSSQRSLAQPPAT

[1] = Uterotonic activity in virgin rat uterus relative to oxytocin; format: functional
[2] = Uterotonic activity in virgin rat uterus; format: functional
Rattus norvegicus = test: Antidiuretic activity in anesthetized rat assessed per mg; format: functional, Urine

Kb (Oxytocin-like receptor) [nM]	SMILES	Activity [1] [%]	Activity [2] [U/mg]	Activity (Rattus norvegicus) [U]
31.6	CC[C@H](C)[C@@H]1NC(=O)[C@H](Cc2ccc(O)cc2)NC(=O)[C@@H](N)C(C)(C)SSC[C@@H](C(=O)N2CCC[C@H]2C(=O)N[C@@H](CC(C)C)C(=O)NCC(N)=O)NC(=O)[C@H](CC(N)=O)NC(=O)[C@H](CCC(N)=O)NC1=O			
53.7	[H][C@@]1([C@@H](C)CC)NC(=O)[C@H](Cc2ccc(O)cc2)NC(=O)NCCCC[C@@H](C(=O)N2CCC[C@H]2C(=O)N[C@@H](CC(C)C)C(=O)NCC(N)=O)NC(=O)[C@H](CC(N)=O)NC(=O)[C@H](CCC(N)=O)NC1=O (HELM PEPTIDE1{Y.I.Q.N.K.P.L.G.[am]}|CHEM1{[O=C([*:1])[*:2]]}$PEPTIDE1,CHEM1,1:R1-1:R1|PEPTIDE1,CHEM1,5:R3-1:R2$$$V2.0)	0.8	3.9	<0.05
